Measured values taken from US8173654B2, “Triazolopyridazine compounds” (Janssen Pharmaceutica N.V., priority 2005, dated 2012).

Columns and labels:
[1] = test system: U87MG glioblastoma tumors; assay: U87MG glioblastoma tumor xenograft model (tumor growth inhibition); assay type: in vivo, athymic nude mice
Protocol: The U87MG glioblsatoma cell line (Piedmont Research Center LLC) expresses the c-Met receptor and responds to Human Growth Factor (HGF). This study investigated whether treatment with an inhibitor of c-Met is efficacious against the U87MG glioblastoma tumor xenograft model. This study utilized a tumor growth inhibition (TGI) assay to test per os (p.o.) compound monotherapy in groups of fifteen nude mice. A control group was treated with vehicle, 20% Hydroxypropyl Beta-Cyclodextrin (HPBCD). All treatments began on Day 1 (D1) in mice bearing established subcutaneous (s.c.) U87MG tumors.
Female athymic nude mice (Harlan) were 10-11 weeks old with a BW range of 18.1-25.0 g on D1 of the study. The animals were fed ad libitum water (reverse osmosis, 1 ppm Cl) and NIH 31 Modified and Irradiated Lab Diet® consisting of 18.0% crude protein, 5.0% crude fat, and 5.0% crude fiber. The mice were housed on irradiated ALPHA-dri® Bed-o-cobs® Laboratory Animal Bedding in static microisolators on a 12-hour light cycle at 21-22° C. (70-72° F.) and 40-60% humidity. All animals were housed in a Laboratory Animal Medicine facility that is fully accredited by the American Association for Assessment and Accreditation of Laboratory Animal Care (AAALAC). All procedures involving animals were conducted in compliance with the NIH Guide for the Care and Use of Laboratory Animals and all protocols were approved by an Internal Animal Care and Use Committee (IACUC).
Xenografts were initiated from U87MG human glioblastoma tumor fragments maintained by serial transplantation in athymic nude mice. Each test mouse received a subcutaneous U87MG tumor fragment (1 mm^3) implanted in the right flank, and the growth of tumors was monitored as the average size approached 200 mm^3. Twelve days later, on Day 1 of the study, the animals were sorted into 4 groups (n=12-15 mice/group) with individual tumor volumes ranging from 172-352 mm^3 and group mean tumor volumes of 216 mm^3. Tumor volume was calculated using the formula:
[formula] where w=width and l=length in mm of the tumor. Tumor weight may be estimated with the assumption that 1 mg is equivalent to 1 mm^3 of tumor volume. Drug Treatment
Dosing solutions of compounds of the present invention were prepared fresh weekly in a vehicle consisting of 20% Hydroxypropyl Beta-Cyclodextrin (HPBCD) in water. In all groups, the dosing volume of 0.2 mL/20-g mouse was scaled to the body weight of each animal. Doses were given to allow for the HCl salt form of the compound.
TGI was calculated from the difference between the median tumor volumes of vehicle-treated and drug-treated mice, expressed as a percentage of the median tumor volume of the vehicle-treated control group, by the following relation:
The MTV (n) is defined as the median tumor volume (MTV) for the number of animals, n, remaining in the study on that day.
Animals were weighed daily for the first five days of the study and then twice weekly. The mice were examined frequently for overt signs of any adverse, drug-related side effects, and clinical signs of toxicity were recorded when observed. Acceptable toxicity is defined as a group mean body-weight (BW) loss of less than 20% during the study, and not more than one treatment-related (TR) death among ten animals. A death is classified as TR if it is attributable to treatment side effects as evidenced by clinical signs and/or necropsy, or due to unknown causes during the dosing period or within 10 days of the last dose. A death is classified as non treatment-related (NTR) if there is no evidence that the death was related to drug side effects. A death is classified as non treatment-related unknown (NTRu) if the cause of death is unknown.
The Mann-Whitney U-test, for analysis of medians, was used to determine the statistical significance of the difference between the MTVs. Prism 3.03 (GraphPad) for Windows was used for the statistical analyses and graphic presentations. […]

c-Met = c-Met (Homo sapiens, UniProt P08581); assay: Cell based ELISA assay for HGF stimulated c-Met phosphorylation in S114 cells; design: expressed in transfected cells; host or cells: S114 (murine NIH 3T3 derived); details: read-out: c-Met Cell ELISA IC-50
Chain of c-Met (P08581 25-1390): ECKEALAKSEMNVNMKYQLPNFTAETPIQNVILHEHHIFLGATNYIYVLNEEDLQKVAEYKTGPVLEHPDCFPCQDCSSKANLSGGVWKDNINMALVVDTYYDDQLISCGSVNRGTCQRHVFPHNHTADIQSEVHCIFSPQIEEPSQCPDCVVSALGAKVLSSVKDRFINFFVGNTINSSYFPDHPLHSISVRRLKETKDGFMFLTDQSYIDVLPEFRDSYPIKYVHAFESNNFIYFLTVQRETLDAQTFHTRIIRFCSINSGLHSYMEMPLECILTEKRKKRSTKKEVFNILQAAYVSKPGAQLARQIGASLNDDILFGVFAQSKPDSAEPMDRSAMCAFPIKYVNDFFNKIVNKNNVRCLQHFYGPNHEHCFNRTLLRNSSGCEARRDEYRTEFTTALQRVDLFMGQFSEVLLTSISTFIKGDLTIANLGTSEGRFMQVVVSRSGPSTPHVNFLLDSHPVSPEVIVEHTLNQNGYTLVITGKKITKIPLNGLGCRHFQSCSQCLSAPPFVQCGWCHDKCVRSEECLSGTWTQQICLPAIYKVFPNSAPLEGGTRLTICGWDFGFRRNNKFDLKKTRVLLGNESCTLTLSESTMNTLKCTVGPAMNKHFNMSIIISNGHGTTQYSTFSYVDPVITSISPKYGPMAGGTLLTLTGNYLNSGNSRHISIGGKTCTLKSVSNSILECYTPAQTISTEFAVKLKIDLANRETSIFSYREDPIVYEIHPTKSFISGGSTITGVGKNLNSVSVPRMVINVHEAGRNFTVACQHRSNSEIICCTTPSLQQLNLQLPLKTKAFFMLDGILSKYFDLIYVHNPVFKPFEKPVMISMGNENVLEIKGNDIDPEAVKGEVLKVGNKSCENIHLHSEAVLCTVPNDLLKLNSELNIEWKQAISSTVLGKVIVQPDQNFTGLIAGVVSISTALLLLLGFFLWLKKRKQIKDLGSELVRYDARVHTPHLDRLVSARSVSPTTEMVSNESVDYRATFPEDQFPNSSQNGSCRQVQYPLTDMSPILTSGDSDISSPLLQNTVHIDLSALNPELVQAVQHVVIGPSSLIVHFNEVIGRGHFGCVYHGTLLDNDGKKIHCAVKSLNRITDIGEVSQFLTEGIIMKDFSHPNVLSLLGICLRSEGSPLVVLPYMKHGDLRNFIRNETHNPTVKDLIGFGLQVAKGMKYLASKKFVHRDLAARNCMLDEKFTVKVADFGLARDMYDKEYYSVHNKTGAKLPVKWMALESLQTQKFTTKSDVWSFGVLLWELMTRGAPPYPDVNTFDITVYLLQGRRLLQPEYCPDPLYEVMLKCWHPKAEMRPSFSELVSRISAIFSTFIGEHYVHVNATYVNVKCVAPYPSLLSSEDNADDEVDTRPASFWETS

SMILES: Cn1cc(-c2ccc3nnc(C(F)(F)c4ccc5ncccc5c4)n3n2)cn1 [Example 61, 6-{Difluoro-[6-(1-methyl-1H-pyrazol-4-yl)-[1,2,4]triazolo[4,3-b]pyridazin-3-yl]-methyl}-quinoline]
- decrease of mean tumor volume ([1]; 25 mg/kg p.o., q.d. on day 1 and b.i.d. to day 12, Day 12, p<0.01): 94%
- decrease of mean tumor volume ([1]; 50 mg/kg p.o., b.i.d. for 7 days, 24-hr pause, then q.d. to day 12, Day 12, p<0.01): 96%
- decrease of mean tumor volume ([1]; 75 mg/kg p.o., b.i.d. for 7 days, 24-hr pause, then q.d. to day 12, Day 12, p<0.01): 97%
- tumor regression ([1]; 25, 50 and 75 mg/kg p.o., 12 days): Tumor regression was also observed with all three doses
- tumor growth inhibition of U87MG tumors ([1]; 25, 50 and 75 mg/kg p.o., 12 days, p<0.01): statistically significant, tumor growth inhibition
- IC50 (c-Met): 2 nM
